Experiment: molar heat capacity at constant pressure
Details: Liquid

CC(C)CCCCCCCOC(=O)c1ccccc1C(=O)OCCCCCCCC(C)C
molar heat capacity at constant pressure [J/K/mol]
Details | Flow calorimetry | Numerical integration with Cp at 1 atm and U at elevated pressures
293.15 K, 100 kPa | 754.86 | 755.75
293.15 K, 10000 kPa | – | 754.86
293.15 K, 20000 kPa | – | 753.52
293.15 K, 30000 kPa | – | 753.07
293.15 K, 40000 kPa | – | 752.18
293.15 K, 50000 kPa | – | 751.73
293.15 K, 60000 kPa | – | 751.29
293.15 K, 70000 kPa | – | 750.84
293.15 K, 80000 kPa | – | 750.84
293.15 K, 90000 kPa | – | 750.39
293.15 K, 100000 kPa | – | 750.39
293.15 K, 110000 kPa | – | 749.95
293.15 K, 120000 kPa | – | 749.95
293.15 K, 130000 kPa | – | 749.95
293.15 K, 140000 kPa | – | 749.95
303.15 K, 100 kPa | – | 771.39
303.15 K, 10000 kPa | – | 770.05
303.15 K, 20000 kPa | – | 768.71
303.15 K, 30000 kPa | – | 767.81
303.15 K, 40000 kPa | – | 767.37
303.15 K, 50000 kPa | – | 766.92
303.15 K, 60000 kPa | – | 766.47
303.15 K, 70000 kPa | – | 766.03
303.15 K, 80000 kPa | – | 765.58
303.15 K, 90000 kPa | – | 765.58
303.15 K, 100000 kPa | – | 765.13
303.15 K, 110000 kPa | – | 765.13
303.15 K, 120000 kPa | – | 765.13
303.15 K, 130000 kPa | – | 765.13
303.15 K, 140000 kPa | – | 765.13
313.15 K, 100 kPa | 788.81 | 786.57
313.15 K, 10000 kPa | – | 785.23
313.15 K, 20000 kPa | – | 784.34
313.15 K, 30000 kPa | – | 783.45
313.15 K, 40000 kPa | – | 782.55
313.15 K, 50000 kPa | – | 782.11
313.15 K, 60000 kPa | – | 781.66
313.15 K, 70000 kPa | – | 781.21
313.15 K, 80000 kPa | – | 781.21
313.15 K, 90000 kPa | – | 780.77
313.15 K, 100000 kPa | – | 780.77
313.15 K, 110000 kPa | – | 780.77
313.15 K, 120000 kPa | – | 780.77
313.15 K, 130000 kPa | – | 780.32
313.15 K, 140000 kPa | – | 780.32
323.15 K, 100 kPa | – | 802.65
323.15 K, 10000 kPa | – | 801.31
323.15 K, 20000 kPa | – | 799.97
323.15 K, 30000 kPa | – | 799.08
323.15 K, 40000 kPa | – | 798.63
323.15 K, 50000 kPa | – | 797.74
323.15 K, 60000 kPa | – | 797.29
323.15 K, 70000 kPa | – | 797.29
323.15 K, 80000 kPa | – | 796.85
323.15 K, 90000 kPa | – | 796.4
323.15 K, 100000 kPa | – | 796.4
323.15 K, 110000 kPa | – | 796.4
323.15 K, 120000 kPa | – | 796.4
323.15 K, 130000 kPa | – | 796.4
323.15 K, 140000 kPa | – | 796.4
333.15 K, 100 kPa | 816.5 | 818.73
333.15 K, 10000 kPa | – | 817.39
333.15 K, 20000 kPa | – | 816.05
333.15 K, 30000 kPa | – | 815.16
333.15 K, 40000 kPa | – | 814.27
333.15 K, 50000 kPa | – | 813.82
333.15 K, 60000 kPa | – | 813.37
333.15 K, 70000 kPa | – | 812.93
333.15 K, 80000 kPa | – | 812.93
333.15 K, 90000 kPa | – | 812.48
333.15 K, 100000 kPa | – | 812.48
333.15 K, 110000 kPa | – | 812.48
333.15 K, 120000 kPa | – | 812.48
333.15 K, 130000 kPa | – | 812.48
333.15 K, 140000 kPa | – | 812.48
343.15 K, 100 kPa | – | 835.26
343.15 K, 10000 kPa | – | 833.92
343.15 K, 20000 kPa | – | 832.58
343.15 K, 30000 kPa | – | 831.69
343.15 K, 40000 kPa | – | 830.79
343.15 K, 50000 kPa | – | 830.35
343.15 K, 60000 kPa | – | 829.9
343.15 K, 70000 kPa | – | 829.45
343.15 K, 80000 kPa | – | 829.01
343.15 K, 90000 kPa | – | 829.01
343.15 K, 100000 kPa | – | 829.01
343.15 K, 110000 kPa | – | 829.01
343.15 K, 120000 kPa | – | 829.01
343.15 K, 130000 kPa | – | 828.56
343.15 K, 140000 kPa | – | 829.01
353.15 K, 100 kPa | 852.23 | 852.23
353.15 K, 10000 kPa | – | 850.45
353.15 K, 20000 kPa | – | 849.11
353.15 K, 30000 kPa | – | 848.21
353.15 K, 40000 kPa | – | 847.32
353.15 K, 50000 kPa | – | 846.87
353.15 K, 60000 kPa | – | 846.43
353.15 K, 70000 kPa | – | 845.98
353.15 K, 80000 kPa | – | 845.98
353.15 K, 90000 kPa | – | 845.53
353.15 K, 100000 kPa | – | 845.53
353.15 K, 110000 kPa | – | 845.53
353.15 K, 120000 kPa | – | 845.53
353.15 K, 130000 kPa | – | 845.53
353.15 K, 140000 kPa | – | 845.53
363.15 K, 100 kPa | – | 869.21
363.15 K, 10000 kPa | – | 867.42
363.15 K, 20000 kPa | – | 866.08
363.15 K, 30000 kPa | – | 865.19
363.15 K, 40000 kPa | – | 864.29
363.15 K, 50000 kPa | – | 863.85
363.15 K, 60000 kPa | – | 863.4
363.15 K, 70000 kPa | – | 862.95
363.15 K, 80000 kPa | – | 862.95
363.15 K, 90000 kPa | – | 862.95
363.15 K, 100000 kPa | – | 862.51
363.15 K, 110000 kPa | – | 862.51
363.15 K, 120000 kPa | – | 862.51
363.15 K, 130000 kPa | – | 862.51
363.15 K, 140000 kPa | – | 862.51
373.15 K, 100 kPa | 893.77 | 886.62
373.15 K, 10000 kPa | – | 884.84
373.15 K, 20000 kPa | – | 883.5
373.15 K, 30000 kPa | – | 882.6
373.15 K, 40000 kPa | – | 881.71
373.15 K, 50000 kPa | – | 881.26
373.15 K, 60000 kPa | – | 880.82
373.15 K, 70000 kPa | – | 880.37
373.15 K, 80000 kPa | – | 880.37
373.15 K, 90000 kPa | – | 879.93
373.15 K, 100000 kPa | – | 879.93
373.15 K, 110000 kPa | – | 879.93
373.15 K, 120000 kPa | – | 879.93
373.15 K, 130000 kPa | – | 879.93
373.15 K, 140000 kPa | – | 879.93
383.15 K, 100 kPa | – | 904.49
383.15 K, 10000 kPa | – | 902.7
383.15 K, 20000 kPa | – | 901.36
383.15 K, 30000 kPa | – | 900.02
383.15 K, 40000 kPa | – | 899.58
383.15 K, 50000 kPa | – | 898.68
383.15 K, 60000 kPa | – | 898.24
383.15 K, 70000 kPa | – | 898.24
383.15 K, 80000 kPa | – | 897.79
383.15 K, 90000 kPa | – | 897.79
383.15 K, 100000 kPa | – | 897.79
383.15 K, 110000 kPa | – | 897.79
383.15 K, 120000 kPa | – | 897.79
383.15 K, 130000 kPa | – | 897.79
383.15 K, 140000 kPa | – | 897.79
393.15 K, 100 kPa | 914.32 | 922.8
393.15 K, 10000 kPa | – | 920.57
393.15 K, 20000 kPa | – | 919.23
393.15 K, 30000 kPa | – | 918.34
393.15 K, 40000 kPa | – | 917.44
393.15 K, 50000 kPa | – | 917
393.15 K, 60000 kPa | – | 916.55
393.15 K, 70000 kPa | – | 916.1
393.15 K, 80000 kPa | – | 916.1
393.15 K, 90000 kPa | – | 915.66
393.15 K, 100000 kPa | – | 915.66
393.15 K, 110000 kPa | – | 915.66
393.15 K, 120000 kPa | – | 915.66
393.15 K, 130000 kPa | – | 915.66
393.15 K, 140000 kPa | – | 916.1
403.15 K, 100 kPa | – | 941.12
403.15 K, 10000 kPa | – | 938.88
403.15 K, 20000 kPa | – | 937.54
403.15 K, 30000 kPa | – | 936.65
403.15 K, 40000 kPa | – | 935.76
403.15 K, 50000 kPa | – | 934.86
403.15 K, 60000 kPa | – | 934.86
403.15 K, 70000 kPa | – | 934.42
403.15 K, 80000 kPa | – | 934.42
403.15 K, 90000 kPa | – | 933.97
403.15 K, 100000 kPa | – | 933.97
403.15 K, 110000 kPa | – | 933.97
403.15 K, 120000 kPa | – | 933.97
403.15 K, 130000 kPa | – | 934.42
403.15 K, 140000 kPa | – | 934.42
413.15 K, 100 kPa | – | 959.88
413.15 K, 10000 kPa | – | 957.64
413.15 K, 20000 kPa | – | 956.3
413.15 K, 30000 kPa | – | 954.96
413.15 K, 40000 kPa | – | 954.07
413.15 K, 50000 kPa | – | 953.62
413.15 K, 60000 kPa | – | 953.18
413.15 K, 70000 kPa | – | 953.18
413.15 K, 80000 kPa | – | 952.73
413.15 K, 90000 kPa | – | 952.73
413.15 K, 100000 kPa | – | 952.73
413.15 K, 110000 kPa | – | 952.73
413.15 K, 120000 kPa | – | 952.73
413.15 K, 130000 kPa | – | 953.18
413.15 K, 140000 kPa | – | 953.18
423.15 K, 100 kPa | 981.32 | –

Source: the NIST ThermoML archive (doi:10.1016/j.jct.2009.12.002)
